Source: patent US10829523B2, “Anti-tumor peptides and use thereof” (TOAGOSEI CO., LTD., priority 2017, dated 2020)
Peptide text beside a SMILES is read from it.

Key:
Details in all cases: 5 h incubation, n=3 average
[1] = tested on: pancreatic cancer cell line (MIA PaCa-2); test: Anti-tumor activity test, cell survival rate (WST-8); assay type: cell-based, human
Experimental: (§1) For any one of each sample peptide synthesized in the above Test Example 1, an anti-tumor activity was evaluated by having various kinds of cultured tumor cells as a subject.
(§2) Specifically, as a tumor cell for test, cultured mammary cancer cell line (MCF-7), cultured mammary cancer cell line (MDA-MB-231), cultured pancreatic cancer cell line (MIA PaCa-2), cultured prostate cancer cell line (PC-3), and cultured prostate cancer cell line (DU-145), which are currently available on the market, were used. Furthermore, as a subject for comparison, commercially available cultured cell line of normal human mammary epithelial cells was used. Details of the test are described below.
(§3) Namely, those cell lines were cultured in advance in DMEM medium (that is, Dulbecco's MEM medium (DMEM medium: product of Gibco) containing 10% fetal bovine serum (FBS: product of Gibco), 2 mM L-glutamine, 50 unit/mL penicillin, and 50 μg/mL of streptomycin), and adjusted such that the number of cells per well of a 96-hole (well) plate is about 1×10^4. The medium amount was 100 μL per well.
(§4) Subsequently, the 96-hole (well) plate was kept in a CO2 incubator and pre-incubation was carried out for about 1 day (22 hours to 23 hours) at conditions of 37° C., 5% CO2.
(§5) After that, a test medium containing the peptide at each concentration was prepared such that the peptide concentration in any sample to be an evaluation subject is any one of 3.13 μM, 6.25 μM, 12.5 μM, 25 μM, 50 μM, and 100 μM. Then, the test medium was supplied, in an amount of 90 μL per well, to a well in which the cells as an evaluation subject have been cultured (that is, well after the above pre-incubation). In addition, the 96-hole (well) plate was returned to the CO2 incubator and incubated for 5 hours at conditions of 37° C., 5% CO2.
(§6) Furthermore, number (n) of the test wells for the test group added with each peptide at each peptide concentration was all set at 3. Thus, the result values shown in the following table correspond to an average value of the results which have been obtained from each of test well number of 3. Cell survival rate (%) was determined as described below.
(§7) Upon completion of the incubation for 5 hours described above, the medium in each well was replaced with 100 μL of fresh medium not containing the peptide. Furthermore, “Cell Counting Kit-8” (product of Dojindo Laboratories) containing as a chromogenic reagent “Aqueous tetrazolium salt (WST-8)”, which is a reagent for measuring cell proliferation, was added in an amount of 10 μL to each well. After that, the 96-hole (well) plate was returned to the CO2 incubator and incubated for 1.5 hours at conditions of 37° C. 5% CO2.
(§8) Upon completion of the incubation, the cell culture solution added with the above reagent was recovered, and simultaneously, according to colorimetry by which absorbance at wavelength of 450 nm based on reduction of tetrazolium salt (value calibrated with absorbance at wavelength of 650 nm: A450-A650), the cell survival rate (%) was evaluated.

[2] = tested on: prostate cancer cell line (DU-145); test: as above; assay type: cell-based, human
Experimental: as §1, §2, §3, §4, §5, §6, §7, §8

[3] = tested on: mammary cancer cell line (MCF-7); test: as above; assay type: cell-based, human
Experimental: as §1, §2, §3, §4, §5, §6, §7, §8

[4] = tested on: mammary cancer cell line (MDA-MB-231); test: as above; assay type: cell-based, human
Experimental: as §1, §2, §3, §4, §5, §6, §7, §8

[5] = tested on: prostate cancer cell line (PC-3); test: as above; assay type: cell-based, human
Experimental: as §1, §2, §3, §4, §5, §6, §7, §8

[6] = tested on: normal human mammary epithelial cells; test: Cell survival rate test (WST-8, Cell Counting Kit-8) on normal cells for comparison; assay type: cell-based
Experimental: as §1, §2, §3, §4, §5, §6, §7, §8

Row | SMILES | Cell survival rate (%) ([1]; peptide 12.5 μM) | Cell survival rate (%) ([1]; peptide 25 μM) | Cell survival rate (%) ([1]; peptide 50 μM) | Cell survival rate (%) ([1]; peptide 100 μM) | Cell survival rate (%) ([2]; peptide 12.5 μM) | Cell survival rate (%) ([2]; peptide 25 μM) | Cell survival rate (%) ([2]; peptide 50 μM) | Cell survival rate (%) ([2]; peptide 100 μM) | Cell survival rate (%) ([3]; peptide 12.5 μM) | Cell survival rate (%) ([3]; peptide 25 μM) | Cell survival rate (%) ([3]; peptide 50 μM) | Cell survival rate (%) ([3]; peptide 100 μM) | Cell survival rate (%) ([4]; peptide 12.5 μM) | Cell survival rate (%) ([4]; peptide 25 μM) | Cell survival rate (%) ([4]; peptide 50 μM) | Cell survival rate (%) ([4]; peptide 100 μM) | Cell survival rate (%) ([5]; peptide 12.5 μM) | Cell survival rate (%) ([5]; peptide 25 μM) | Cell survival rate (%) ([5]; peptide 50 μM) | Cell survival rate (%) ([4]; peptide 3.13 μM) | other results
1 | CC[C@H](C)[C@H](NC(=O)CNC(=O)[C@H](CC(C)C)NC(=O)[C@H](CC(C)C)NC(=O)[C@H](Cc1ccccc1)NC(=O)[C@@H](NC(=O)CNC(=O)[C@@H](NC(=O)CNC(=O)[C@H](CCCCN)NC(=O)[C@@H](N)CCSC)[C@@H](C)O)[C@@H](C)O)C(=O)N[C@@H](C)C(=O)NCC(=O)N[C@@H](CC(C)C)C(=O)N[C@@H](Cc1ccccc1)C(=O)N[C@H](C(=O)N[C@@H](CC(C)C)C(=O)N[C@@H](CCC(N)=O)C(=O)N[C@@H](CCCCN)C(=O)N[C@H](C(=O)N[C@H](C(=O)N[C@@H](CCC(N)=O)C(=O)N[C@@H](CCCNC(=N)N)C(=O)N[C@@H](CCCNC(=N)N)C(=O)N[C@@H](CCCNC(=N)N)C(=O)N[C@@H](CCCNC(=N)N)C(=O)N[C@@H](CCCNC(=N)N)C(=O)N[C@@H](CCCNC(=N)N)C(=O)N[C@@H](CCCNC(=N)N)C(=O)N[C@@H](CCCNC(=N)N)C(=O)N[C@@H](CCCNC(=N)N)C(N)=O)[C@@H](C)CC)C(C)C)[C@@H](C)O [Sample 2] (H-MKGTGTFLLGIAGLFTLQKVIQRRRRRRRRR-NH2; N-terminus assumed) | 94.4% | 91.3% | 36.7% | 7% | 86.2% | 75.2% | 41.2% | 16.4% | 75.7% | 49.1% | 20.2% | 17.6% | 80% | 69.7% | 52.6% | 44.3% | 101.1% | 80.9% | 45.2% | – | Cell survival rate (%) ([5]; peptide 100 μM): 42.6%; Cell survival rate (%) ([6]; peptide 12.5 μM): 88.3%; Cell survival rate (%) ([6]; peptide 25 μM): 82.1%; Cell survival rate (%) ([6]; peptide 50 μM): 56.1%; Cell survival rate (%) ([6]; peptide 100 μM): 42.7%
2 | CC[C@H](C)[C@H](NC(=O)[C@H](CO)NC(=O)[C@@H](NC(=O)[C@H](CC(C)C)NC(=O)[C@H](CC(C)C)NC(=O)[C@H](CC(N)=O)NC(=O)[C@H](Cc1c[nH]c2ccccc12)NC(=O)[C@H](CCC(N)=O)NC(=O)[C@H](CC(C)C)NC(=O)[C@@H]1CCCN1C(=O)[C@@H](N)Cc1ccc(O)cc1)[C@@H](C)CC)C(=O)N[C@@H](CC(C)C)C(=O)N[C@@H](C)C(=O)N[C@@H](CO)C(=O)N[C@@H](CO)C(=O)N[C@H](C(=O)NCC(=O)N[C@@H](CO)C(=O)N[C@@H](Cc1ccc(O)cc1)C(=O)N[C@@H](C)C(=O)N[C@H](C(=O)N[C@@H](CCCCN)C(=O)N[C@@H](CCCCN)C(=O)N[C@@H](CCCNC(=N)N)C(=O)N[C@H](C(=O)N[C@@H](CC(C)C)C(=O)N[C@@H](CCCNC(=N)N)C(=O)N[C@@H](CCCCN)C(=O)N[C@@H](CC(N)=O)C(=O)N[C@@H](CC(=O)O)C(=O)N[C@@H](CCCNC(=N)N)C(=O)N[C@@H](CCCCN)C(=O)N[C@@H](CCCCN)C(=O)N[C@@H](CCCNC(=N)N)C(N)=O)[C@@H](C)O)C(C)C)C(C)C [Sample 3] (H-YPLQWNLLISILASSVGSYAVKKRTLRKNDRKKR-NH2; N-terminus assumed) | 101.4% | 93.8% | 88.5% | 45.6% | 78.6% | 73.7% | 49.3% | 37.5% | 79.3% | 71.8% | 50% | 32.8% | 77.9% | 65.7% | 54.5% | 45% | 64.6% | 66.5% | 62.5% | – | Cell survival rate (%) ([5]; peptide 100 μM): 47%; Cell survival rate (%) ([6]; peptide 12.5 μM): 83.6%; Cell survival rate (%) ([6]; peptide 25 μM): 71.6%; Cell survival rate (%) ([6]; peptide 50 μM): 81.5%; Cell survival rate (%) ([6]; peptide 100 μM): 74.8%
3 | CC[C@H](C)[C@H](NC(=O)CNC(=O)[C@@H](NC(=O)[C@@H](NC(=O)CNC(=O)[C@H](CC(C)C)NC(=O)[C@@H](NC(=O)[C@H](Cc1ccccc1)NC(=O)[C@H](CO)NC(=O)[C@H](C)NC(=O)[C@@H](NC(=O)CNC(=O)[C@H](CCCCN)NC(=O)[C@H](CCSC)NC(=O)[C@H](Cc1ccccc1)NC(=O)[C@H](C)NC(=O)[C@@H](N)Cc1ccc(O)cc1)[C@@H](C)O)[C@@H](C)CC)[C@@H](C)O)C(C)C)C(=O)N[C@@H](Cc1ccccc1)C(=O)N[C@@H](Cc1ccccc1)C(=O)NCC(=O)N[C@@H](Cc1c[nH]c2ccccc12)C(=O)N[C@@H](CCCNC(=N)N)C(=O)N[C@@H](CCCNC(=N)N)C(=O)N[C@@H](CCC(N)=O)C(=O)N[C@@H](C)C(=O)N[C@@H](CCCNC(=N)N)C(=O)N[C@@H](Cc1ccccc1)C(=O)N[C@@H](CCCCN)C(N)=O [Sample 8] (H-YAFMKGTASFILGTVGIFFGWRRQARFK-NH2; N-terminus assumed) | – | – | – | – | – | – | – | – | – | – | – | – | – | – | 76% | – | – | – | – | 99% | –
4 | CC[C@H](C)[C@H](NC(=O)[C@H](CO)NC(=O)[C@@H](NC(=O)[C@H](Cc1ccccc1)NC(=O)[C@H](CC(C)C)NC(=O)[C@H](CC(N)=O)NC(=O)[C@H](Cc1c[nH]c2ccccc12)NC(=O)[C@H](CCC(N)=O)NC(=O)[C@@H](N)CC(C)C)C(C)C)C(=O)N[C@H](C(=O)N[C@@H](CO)C(=O)N[C@@H](CO)C(=O)N[C@@H](CO)C(=O)N[C@H](C(=O)N[C@@H](Cc1ccccc1)C(=O)N[C@@H](CO)C(=O)N[C@@H](Cc1ccc(O)cc1)C(=O)N[C@@H](CO)C(=O)N[C@H](C(=O)N[C@@H](Cc1c[nH]c2ccccc12)C(=O)N[C@@H](CCCNC(=N)N)C(=O)N[C@@H](CCCNC(=N)N)C(=O)N[C@@H](CCC(N)=O)C(=O)N[C@@H](C)C(=O)N[C@@H](CCCNC(=N)N)C(=O)N[C@@H](Cc1ccccc1)C(=O)N[C@@H](CCCCN)C(N)=O)C(C)C)C(C)C)C(C)C [Sample 9] (H-LQWNLFVSIVSSSVFSYSVWRRQARFK-NH2; N-terminus assumed) | – | – | – | – | – | – | – | – | – | – | – | – | – | – | 73% | – | – | – | – | 99% | –
5 | CC[C@H](C)[C@H](NC(=O)[C@H](C)NC(=O)[C@H](CO)NC(=O)[C@@H](NC(=O)[C@H](CC(C)C)NC(=O)[C@H](Cc1ccccc1)NC(=O)[C@H](CO)NC(=O)[C@H](Cc1c[nH]c2ccccc12)NC(=O)[C@H](CCC(N)=O)NC(=O)[C@@H](NC(=O)[C@@H]1CCCN1)C(C)C)C(C)C)C(=O)N[C@@H](C)C(=O)NCC(=O)N[C@@H](CO)C(=O)N[C@H](C(=O)N[C@@H](C)C(=O)N[C@@H](CO)C(=O)N[C@@H](Cc1ccc(O)cc1)C(=O)N[C@@H](CCCNC(=N)N)C(=O)N[C@H](C(=O)N[C@@H](Cc1c[nH]c2ccccc12)C(=O)N[C@@H](CCCNC(=N)N)C(=O)N[C@@H](CCCNC(=N)N)C(=O)N[C@@H](CCC(N)=O)C(=O)N[C@@H](C)C(=O)N[C@@H](CCCNC(=N)N)C(=O)N[C@@H](Cc1ccccc1)C(=O)N[C@@H](CCCCN)C(N)=O)C(C)C)C(C)C [Sample 11] (H-PVQWSFLVSAIAGSVASYRVWRRQARFK-NH2; N-terminus assumed) | – | – | – | – | – | – | – | – | – | – | – | – | – | – | 77% | – | – | – | – | 101% | –
